Reference: PubChem BioAssay (NCI)
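Assay format: 96-well plates, 48-hour exposure. GI50 is the concentration that inhibits growth by half. The concentration for full growth arrest is given as TGI.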

Experiments:
Test in all cases: NCI anticancer screen, dose series, 48 h
[1] = system: SK-OV-3 ovarian
[2] = system: HS 578T breast
[3] = system: OVCAR-8 ovarian
[4] = system: K-562 leukemia
[5] = system: TK-10 renal
[6] = system: IGROV1 ovarian
[7] = system: SN12C renal
[8] = system: U251 CNS
[9] = system: SF-295 CNS
[10] = system: HL-60(TB) leukemia
[11] = system: CAKI-1 renal
[12] = system: MCF7 breast
[13] = system: MDA-MB-468 breast
[14] = system: A549 NSCLC
[15] = system: LOX IMVI melanoma
[16] = system: OVCAR-4 ovarian
[17] = system: COLO 205 colon
[18] = system: SK-MEL-28 melanoma
[19] = system: KM12 colon
[20] = system: SNB-19 CNS
[21] = system: HCT-116 colon
[22] = system: HT29 colon
[23] = system: NCI-H23 lung
[24] = system: HOP-62 NSCLC
[25] = system: EKVX NSCLC
[26] = system: OVCAR-3 ovarian
[27] = system: RPMI-8226 leukemia
[28] = system: NCI-H522 lung
[29] = system: MALME-3M melanoma
[30] = system: PC-3 prostate
[31] = system: UACC-62 melanoma
[32] = system: HCC-2998 colon
[33] = system: BT-549 breast
[34] = system: SR leukemia
[35] = system: HCT-15 colon
[36] = system: MDA-MB-231 breast
[37] = system: UO-31 renal
[38] = system: DU-145 prostate
[39] = system: SF-268 CNS
[40] = system: NCI-H226 lung
[41] = system: A498 renal
[42] = system: M14 melanoma
[43] = system: T-47D breast
[44] = system: SK-MEL-5 melanoma
[45] = system: SF-539 CNS
[46] = system: CCRF-CEM leukemia
[47] = system: HOP-92 NSCLC
[48] = system: RXF 393 renal
[49] = system: SK-MEL-2 melanoma
[50] = system: ACHN renal
[51] = system: OVCAR-5 ovarian
[52] = system: 786-0 renal
[53] = system: MOLT-4 leukemia
[54] = system: SW-620 colon
[55] = system: MDA-MB-435
[56] = system: UACC-257 melanoma
[57] = system: SNB-75 CNS
[58] = system: NCI-H460 lung

CN(C)c1nc(NCCNS(=O)(=O)c2ccc(C(=O)/C=C/c3ccccc3)cc2)nc(N2CCOCC2)n1
GI50 [1]: 15.6 µM
TGI [1]: 29.8 µM
GI50 [2]: 17.1 µM
TGI [2]: 64.4 µM
GI50 [3]: 16.4 µM
TGI [3]: 31.8 µM
GI50 [4]: 2.19 µM
TGI [4]: > 100 µM
GI50 [5]: 16.4 µM
TGI [5]: 30.2 µM
GI50 [6]: 15.3 µM
TGI [6]: 31.9 µM
GI50 [7]: 14.6 µM
TGI [7]: 28.6 µM
GI50 [8]: 11.7 µM
TGI [8]: 25.9 µM
GI50 [9]: 15.6 µM
TGI [9]: 30.4 µM
GI50 [10]: 6.18 µM
TGI [10]: 42.1 µM
GI50 [11]: 12.2 µM
TGI [11]: 24.6 µM
GI50 [12]: 3.49 µM
TGI [12]: 13.8 µM
GI50 [13]: 4.17 µM
TGI [13]: 17.7 µM
GI50 [14]: 13.6 µM
TGI [14]: 28.3 µM
GI50 [15]: 1.97 µM
TGI [15]: 4.13 µM
GI50 [16]: 14.3 µM
TGI [16]: 27.8 µM
GI50 [17]: 20.2 µM
TGI [17]: 40.3 µM
GI50 [18]: 17.2 µM
TGI [18]: 33.1 µM
GI50 [19]: 2 µM
TGI [19]: 4.23 µM
GI50 [20]: 14.8 µM
TGI [20]: 29.1 µM
GI50 [21]: 1.82 µM
TGI [21]: 3.59 µM
GI50 [22]: 3.8 µM
TGI [22]: 13.1 µM
GI50 [23]: 16 µM
TGI [23]: 30.4 µM
GI50 [24]: 16.4 µM
TGI [24]: 32.1 µM
GI50 [25]: 14.7 µM
TGI [25]: 30.6 µM
GI50 [26]: 15.3 µM
TGI [26]: 28.6 µM
GI50 [27]: 3.25 µM
TGI [27]: 11.4 µM
GI50 [28]: 13.6 µM
TGI [28]: 27.1 µM
GI50 [29]: 15.2 µM
TGI [29]: 29.3 µM
GI50 [30]: 8.63 µM
TGI [30]: 23.6 µM
GI50 [31]: 12 µM
TGI [31]: 25 µM
GI50 [32]: 16.7 µM
TGI [32]: 31.1 µM
GI50 [33]: 11.2 µM
TGI [33]: 23.7 µM
GI50 [34]: 3.2 µM
TGI [34]: > 100 µM
GI50 [35]: 5.21 µM
TGI [35]: 20.5 µM
GI50 [36]: 13.9 µM
TGI [36]: 27.6 µM
GI50 [37]: 11.2 µM
TGI [37]: 25 µM
GI50 [38]: 15.1 µM
TGI [38]: 28.4 µM
GI50 [39]: 13.7 µM
TGI [39]: 31 µM
GI50 [40]: 13.5 µM
TGI [40]: 31.7 µM
GI50 [41]: 14.6 µM
TGI [41]: 27.8 µM
GI50 [42]: 14.6 µM
TGI [42]: 31.6 µM
GI50 [43]: 16 µM
TGI [43]: 37.4 µM
GI50 [44]: 15.9 µM
TGI [44]: 29.4 µM
GI50 [45]: 11.1 µM
TGI [45]: 24.3 µM
GI50 [46]: 4.41 µM
TGI [46]: 75.9 µM
GI50 [47]: 12.2 µM
TGI [47]: 26.6 µM
GI50 [48]: 7.87 µM
TGI [48]: 22.8 µM
GI50 [49]: 15.3 µM
TGI [49]: 29.5 µM
GI50 [50]: 18.2 µM
TGI [50]: 36.3 µM
GI50 [51]: 12.1 µM
TGI [51]: 26 µM
GI50 [52]: 14.8 µM
TGI [52]: 29.1 µM
GI50 [53]: 4.27 µM
TGI [53]: > 100 µM
GI50 [54]: 3.41 µM
TGI [54]: 12.7 µM
GI50 [55]: 14.7 µM
TGI [55]: 28.3 µM
GI50 [56]: 17.9 µM
TGI [56]: 32.3 µM
GI50 [57]: 5.49 µM
TGI [57]: 19.8 µM
GI50 [58]: 18.2 µM
TGI [58]: 38.3 µM
